This series concerns CCRIS mutagenicity, Ames/micronucleus/aberration tests. Description: CCRIS mutagenicity studies.
The mark [1] stands for this setting: Test System: AMES SALMONELLA TYPHIMURIUM, Strain/Indicator: TA98, Metabolic Activation: NONE, Method: STANDARD PLATE.
Setting [2] is: Test System: AMES SALMONELLA TYPHIMURIUM, Strain/Indicator: TA98, Metabolic Activation: RAT, LIVER, S-9, AROCLOR 1254, Method: STANDARD PLATE.
[3] abbreviates: Test System: AMES SALMONELLA TYPHIMURIUM, Strain/Indicator: TA100, Metabolic Activation: NONE, Method: STANDARD PLATE.
[4] abbreviates: Test System: AMES SALMONELLA TYPHIMURIUM, Strain/Indicator: TA100, Metabolic Activation: RAT, LIVER, S-9, AROCLOR 1254, Method: STANDARD PLATE.
Setting [5] is: Test System: AMES SALMONELLA TYPHIMURIUM, Strain/Indicator: TA98, Metabolic Activation: NONE, Method: PREINCUBATION
Setting [6] is: Test System: AMES SALMONELLA TYPHIMURIUM, Strain/Indicator: TA100, Metabolic Activation: NONE, Method: PREINCUBATION

Our source for the mutagenic call values is PubChem BioAssay AID1259407 (Chemical Carcinogenesis Research Information System (CCRIS), 2018).

Molecules are shown by their SMILES. Activity calls are given as the source filed them. How the calls were made is not given here.

As to `COc1ccc(CNCC(O)COc2ccc3[nH]c(=O)ccc3c2)cc1OC` (configuration not stated), the mutagenic call is “inactive; negative” under setting [1]; “inactive; negative” under setting [2]; “inactive; negative” under setting [3]; “inactive; negative” under setting [4]; “inactive; negative” (Test System: AMES SALMONELLA TYPHIMURIUM, Strain/Indicator: TA1535, Metabolic Activation: NONE, Method: STANDARD PLATE); “inactive; negative” (Test System: AMES SALMONELLA TYPHIMURIUM, Strain/Indicator: TA1535, Metabolic Activation: RAT, LIVER, S-9, AROCLOR 1254, Method: STANDARD PLATE). The mutagenic call (Test System: AMES SALMONELLA TYPHIMURIUM, Strain/Indicator: TA1537, Metabolic Activation: NONE, Method: STANDARD PLATE) is “inactive; negative”; the mutagenic call (Test System: AMES SALMONELLA TYPHIMURIUM, Strain/Indicator: TA1537, Metabolic Activation: RAT, LIVER, S-9, AROCLOR 1254, Method: STANDARD PLATE) was “inactive; negative”; the mutagenic call (Test System: AMES SALMONELLA TYPHIMURIUM, Strain/Indicator: TA1538, Metabolic Activation: NONE, Method: STANDARD PLATE) is “inactive; negative”; the mutagenic call (Test System: AMES SALMONELLA TYPHIMURIUM, Strain/Indicator: TA1538, Metabolic Activation: RAT, LIVER, S-9, AROCLOR 1254, Method: STANDARD PLATE) was “inactive; negative”; the mutagenic call (Test System: E. COLI, Strain/Indicator: WP2 UVRA, Metabolic Activation: NONE, Method: STANDARD PLATE) is “inactive; negative”; the mutagenic call (Test System: E. COLI, Strain/Indicator: WP2 UVRA, Metabolic Activation: RAT, LIVER, S-9, AROCLOR 1254, Method: STANDARD PLATE) was “inactive; negative”. For the same molecule, for the setting “Test System: MOUSE LYMPHOMA, Strain/Indicator: L5178Y (TK+/TK-), Metabolic Activation: NONE, Method: SUSPENSION/PLATE”, the mutagenic call was “active; positive”.
Take `NNc1nncc2cccnc12`: the mutagenic call is, setting by setting: under setting [5], “active; positive”; (Test System: AMES SALMONELLA TYPHIMURIUM, Strain/Indicator: TA98, Metabolic Activation: RAT, LIVER, S-9, PCB, Method: PREINCUBATION) “active; positive”; under setting [6], “active; positive”; (Test System: AMES SALMONELLA TYPHIMURIUM, Strain/Indicator: TA100, Metabolic Activation: RAT, LIVER, S-9, PCB, Method: PREINCUBATION) “active; positive”.
As to `O=C(Nc1ccccc1)C1CO1` (configuration not stated), the mutagenic call was “active; positive” (Test System: AMES SALMONELLA TYPHIMURIUM, Strain/Indicator: TA100, Metabolic Activation: MOUSE, LIVER, S-9, AROCLOR 1254, Method: STANDARD PLATE) and “active; positive” under setting [3].
For the molecule `CC(C)(O)[C@H]1CC[C@@](C)([C@H]2[C@@H](O)C[C@@]3(C)[C@@H]4CC[C@H]5C(C)(C)C(=O)CC[C@@]56C[C@@]46CC[C@]23C)O1`, where the note is “End Point: IN VITRO MICRONUCLEUS, Test System: HUMAN PERIPHERAL LYMPHOCYTES, Metabolic Activation: NONE”, the mutagenic call is “inactive; negative”.
On to `COC(=O)/C(C#N)=C/c1ccco1`, for which the mutagenic call under setting [5] is “inactive; negative”.
As to `C=C(C)C(=O)OCC(C)C`, the mutagenic call reads like this: (Test System: AMES SALMONELLA TYPHIMURIUM, Strain/Indicator: TA98, Metabolic Activation: HAMSTER, LIVER, S-9, AROCLOR 1254 (10%), Method: PREINCUBATION) “inactive; negative”; under setting [5], “inactive; negative”; (Test System: AMES SALMONELLA TYPHIMURIUM, Strain/Indicator: TA98, Metabolic Activation: RAT, LIVER, S-9, AROCLOR 1254 (10%), Method: PREINCUBATION) “inactive; negative”; (Test System: AMES SALMONELLA TYPHIMURIUM, Strain/Indicator: TA100, Metabolic Activation: HAMSTER, LIVER, S-9, AROCLOR 1254 (10%), Method: PREINCUBATION) “inactive; negative”; under setting [6], “inactive; negative”; (Test System: AMES SALMONELLA TYPHIMURIUM, Strain/Indicator: TA100, Metabolic Activation: RAT, LIVER, S-9, AROCLOR 1254 (10%), Method: PREINCUBATION) “inactive; negative”. The mutagenic call (Test System: AMES SALMONELLA TYPHIMURIUM, Strain/Indicator: TA1535, Metabolic Activation: HAMSTER, LIVER, S-9, AROCLOR 1254 (10%), Method: PREINCUBATION) was “inactive; negative”; the mutagenic call (Test System: AMES SALMONELLA TYPHIMURIUM, Strain/Indicator: TA1535, Metabolic Activation: NONE, Method: PREINCUBATION) was “inactive; negative”; the mutagenic call (Test System: AMES SALMONELLA TYPHIMURIUM, Strain/Indicator: TA1535, Metabolic Activation: RAT, LIVER, S-9, AROCLOR 1254 (10%), Method: PREINCUBATION) was “inactive; negative”; the mutagenic call (Test System: AMES SALMONELLA TYPHIMURIUM, Strain/Indicator: TA1537, Metabolic Activation: HAMSTER, LIVER, S-9, AROCLOR 1254 (10%), Method: PREINCUBATION) was “inactive; negative”; the mutagenic call (Test System: AMES SALMONELLA TYPHIMURIUM, Strain/Indicator: TA1537, Metabolic Activation: NONE, Method: PREINCUBATION) is “inactive; negative”; the mutagenic call (Test System: AMES SALMONELLA TYPHIMURIUM, Strain/Indicator: TA1537, Metabolic Activation: RAT, LIVER, S-9, AROCLOR 1254 (10%), Method: PREINCUBATION) was “inactive; negative”.
Consider `CC(=O)/C=C/c1ccccc1`, for which the mutagenic call is, setting by setting: (Test System: AMES SALMONELLA TYPHIMURIUM, Strain/Indicator: TA98, Metabolic Activation: HAMSTER, LIVER, S-9, AROCLOR 1254, Method: STANDARD PLATE) “inactive; negative”; under setting [1], “inactive; negative”; under setting [2], “inactive; negative”; (Test System: AMES SALMONELLA TYPHIMURIUM, Strain/Indicator: TA100, Metabolic Activation: HAMSTER, LIVER, S-9, AROCLOR 1254, Method: STANDARD PLATE) “active; positive”; under setting [3], “inactive; negative”; under setting [4], “active; positive”. The mutagenic call reads like this: (Test System: Mouse lymphoma, Strain/Indicator: L5178Y (tk+/tk-), Metabolic Activation: None, Method: Suspension/plate) “active; positive”; (Test System: Mouse lymphoma, Strain/Indicator: L5178Y (tk+/tk-), Metabolic Activation: Rat, Liver, S-9, Aroclor 1254, Method: Suspension/plate) “inactive; negative”.
With `CC1=C(C(=O)OCCN(Cc2ccccc2)c2ccccc2)C(c2cccc([N+](=O)[O-])c2)C(P2(=O)OCC(C)(C)CO2)=C(C)N1` (configuration not stated), the mutagenic call was “inactive; negative” (Test System: AMES SALMONELLA TYPHIMURIUM, Strain/Indicator: TA98, Metabolic Activation: NONE); “inactive; negative” (Test System: AMES SALMONELLA TYPHIMURIUM, Strain/Indicator: TA98, Metabolic Activation: RAT, LIVER, S-9, PHENOBARBITAL AND 5,6-BENZOFLAVONE); “inactive; negative” (Test System: AMES SALMONELLA TYPHIMURIUM, Strain/Indicator: TA100, Metabolic Activation: NONE); “inactive; negative” (Test System: AMES SALMONELLA TYPHIMURIUM, Strain/Indicator: TA100, Metabolic Activation: RAT, LIVER, S-9, PHENOBARBITAL AND 5,6-BENZOFLAVONE); “inactive; negative” (Test System: AMES SALMONELLA TYPHIMURIUM, Strain/Indicator: TA1535, Metabolic Activation: NONE); “inactive; negative” (Test System: AMES SALMONELLA TYPHIMURIUM, Strain/Indicator: TA1535, Metabolic Activation: RAT, LIVER, S-9, PHENOBARBITAL AND 5,6-BENZOFLAVONE). For the same molecule, the mutagenic call is “inactive; negative” (Test System: AMES SALMONELLA TYPHIMURIUM, Strain/Indicator: TA1537, Metabolic Activation: NONE); “inactive; negative” (Test System: AMES SALMONELLA TYPHIMURIUM, Strain/Indicator: TA1537, Metabolic Activation: RAT, LIVER, S-9, PHENOBARBITAL AND 5,6-BENZOFLAVONE); “inactive; negative” (Test System: E.COLI, Strain/Indicator: WP2 UVRA, Metabolic Activation: NONE).
`CCC(O)/C=C/C=O` (configuration not stated): the mutagenic call by setting is: (End Point: IN VITRO CHROMOSOMAL ABERRATIONS, Test System: RAT HEPATOCYTES, Metabolic Activation: NONE) “active; positive”; (End Point: IN VITRO MICRONUCLEUS, Test System: RAT HEPATOCYTES, Metabolic Activation: NONE) “active; positive”.
